What was measured:
bcNOS [1] = molecular target: T1, bcNOS (Bacillus cereus, UniProt Q814I7); experiment: H2O2-dependent NOHA oxidation to nitrite, plate reader; type: biochemical; settings: H2O2, 25 °C, activator
T1 construct: gene BC_5444; full length, 356 residues, 43 kDa, homodimer; N-terminal His6 tag (pET28a, NdeI/EcoRI), E. coli BL21(DE3) pLysS; heme protein
T1 sequence (Q814I7 1-356): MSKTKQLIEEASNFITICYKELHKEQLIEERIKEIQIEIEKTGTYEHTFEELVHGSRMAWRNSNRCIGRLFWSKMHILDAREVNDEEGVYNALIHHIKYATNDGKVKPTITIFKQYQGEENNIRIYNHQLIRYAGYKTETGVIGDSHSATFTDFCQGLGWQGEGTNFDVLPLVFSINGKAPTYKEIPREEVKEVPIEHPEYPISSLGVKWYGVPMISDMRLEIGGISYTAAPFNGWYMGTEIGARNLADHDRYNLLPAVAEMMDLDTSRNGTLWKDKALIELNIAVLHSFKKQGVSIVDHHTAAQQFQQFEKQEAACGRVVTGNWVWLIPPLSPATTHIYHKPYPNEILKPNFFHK

bcNOS [2] = molecular target: T1, bcNOS; experiment: difference spectroscopy, double-reciprocal analysis; type: binding; settings: distal sixth ligand of ferric heme

SMILES	H2O2-dependent NOHA oxidation to nitrite, plate reader (bcNOS [1])	Kd (bcNOS [2]) [µM]
Nc1nc2c(c(=O)[nH]1)N[C@@H](CNc1ccc(C(=O)N[C@@H](CCC(=O)O)C(=O)O)cc1)CN2 [THF]	in the presence of NOHA and THF the activity doubled	–
c1c[nH]cn1 [imidazole]	–	181 ± 13
